Results as given in patent US20030203963A1, “Antimicrobial agent” (priority 2001, published 2003).

Experiments:
Lb. sake = test: Test in milk; type: cell-based, Lactobacillus sake; details: for Control of growth: 2000 ppm, TMGB010605
Experimental: 8.9 ml samples of UHT milk containing 0.5% glucose and the indicator bromocresol purple (0.01%) were prepared and sterilised by autoclaving. The pH before APP addition was pH 6.65. Appropriate stock solutions of APP batch number APP20010215 (at 138 mg/ml) were prepared and filter sterilised. 1 ml of each was added to the milk to prepare tests containing 0, 1000 and 2000 ppm APP. Tests were then inoculated with 100 μl of diluted overnight broth cultures or spore suspensions to give a final inoculum level of ca. 10^3 cfu/ml. These and uninoculated tests were incubated at 20 and 8° C. and examined daily for visible changes compared to uninoculated control.

S cerevisiae H78 = test: Bioscreen growth inhibition test; type: cell-based, Saccharomyces cerevisiae; details: APP 213, BS010420, 72 h/25° C.
Experimental: (§1) For broth cultures and Bioscreen testing most bacteria were grown in Brain Heart Infusion (BHI, Oxoid, pH 7.4). Lactobacillus sake A10 was grown in de Man, Rogosa, Sharpe medium ([…], Oxoid). Yeasts were grown in Sabouraud Liquid medium (SLM, Oxoid). Most bacteria were cultured at 30° C. Lactic acid bacteria were grown on solid medium in enriched CO2 atmosphere. Clostridium species were grown in Reinforced Clostridial Medium (RCM) at 37° C. anaerobically. Brochothrix thermosphacta fungi and yeasts were grown at 25° C. Fungi were cultured on Malt Extract Agar (MEA, Oxoid).
(§2) An automated Microbiology Reader Bioscreen C was used to measure growth curves of the strains in the presence and absence of APP. The Bioscreen C measures the development of turbidity (i.e. growth) kinetically by vertical photometry in 200 wells of a honeycomb microtitre plate, simultaneously. The system consists of a Bioscreen C analyser, which is an incubator and measurement unit, integrated with a PC, software (BioLink v 5.30), printer and a ‘Honeycomb 2’ cuvette multiwell plate. Growth curve data can be analysed within the BioLink software or exported to programs such as Excel.
(§3) Broth culture media were dispensed in 270 μl volumes into the wells as directed. Serial dilutions of a filter-sterilised APP stock solution were then dispensed into the same wells, as appropriate. The wells were inoculated with 30 μl of an appropriately diluted overnight broth culture or spore suspension, to give a final inoculum level of […]. The tests were incubated in the Bioscreen C for either 24 h at 30° C., or 72 h at 25° C. (depending on the micro-organism under investigation) with readings taken every 20 minutes after the trays were shaken. After the incubation period was complete the data were exported to Excel for analysis.

S. cerevisiae ATCC9763 = test: Bioscreen growth inhibition test; type: cell-based, Saccharomyces cerevisiae; details: APP 213, BS010420, 72 h/25° C.
Experimental: as §1, §2, §3

[1] = tested on: Saccharomyces cerevisiae ATCC 9763; test: Well diffusion test; type: cell-based; details: 20 μl of 49.3 mg/ml (4.9%) APP sample E002012
Experimental: (§4) Seeded 10 ml agar plates of various test organisms were prepared, with inoculation of either 20 μl spore suspension or overnight broth. This gave an inoculum level of ca. 10^5-10^6 cfu/ml. After the plates had set, small wells were cut, and 20 μl of APP sample was loaded. Plates were incubated overnight at appropriate temperature and examined after 1-2 days (after which microbial growth is clearly visible) for zones of inhibition.

[2] = tested on: Pseudomonas fluorescens 327; test: Well diffusion test; type: cell-based; details: 20 μl of 49.3 mg/ml (4.9%) APP sample E002012
Experimental: as §4

Bacillus cereus 204 = test: Well diffusion test; type: cell-based; details: 20 μl of 49.3 mg/ml (4.9%) APP sample E002012
Experimental: as §4

[3] = tested on: Clostridium sporogenes Campden; test: Well diffusion test; type: cell-based; details: 20 μl of 49.3 mg/ml (4.9%) APP sample E002012
Experimental: as §4

[4] = tested on: Saccharomyces carlsbergensis CRA6413; test: Well diffusion test; type: cell-based; details: 20 μl of 49.3 mg/ml (4.9%) APP sample E002012
Experimental: as §4

Micrococcus luteus = test: Well diffusion test; type: cell-based; details: 20 μl of 49.3 mg/ml (4.9%) APP sample E002012
Experimental: as §4

[5] = tested on: Hanseniaspora uvarum CBS5074; test: Test in apple juice; type: cell-based; details: for Growth inhibition: apple juice (pH 3.42) at 25° C., TAJ010530
Experimental: (§5) 8.9 ml apple juice samples (pH 3.42) were prepared and autoclaved. Batch number APP20010215 (at 138 mg/ml) was used to prepare filter-sterilised stock solutions for 1 ml addition to the juice to achieve 0, 1000, 2000 ppm APP. Tests were inoculated with 100 μl of an appropriately diluted overnight SLM broth of yeast culture or ascospore suspension of Byssochlamys spores prepared earlier. The tests were incubated at 25° C., and examined daily for signs of growth (e.g. turbidity, mycelium development).

Candida parapsilosis 458 = test: Test in apple juice; type: cell-based; details: apple juice (pH 3.42) at 25° C., TAJ010530
Experimental: as §5

B. nivea 163642 = test: Test in apple juice; type: cell-based; details: apple juice (pH 3.42) at 25° C., TAJ010530
Experimental: as §5

[6] = tested on: Byssochlamys fulva 040021; test: Test in apple juice; type: cell-based; details: apple juice (pH 3.42) at 25° C., TAJ010530
Experimental: as §5

[7] = tested on: Rhodotorula mucilaginosa var mucilaginosa CBS8161; test: Test in apple juice; type: cell-based; details: for Growth inhibition: apple juice (pH 3.42) at 25° C., TAJ010530
Experimental: as §5

[8] = tested on: Zygosaccharomyces bailii CRA229; test: Test in apple juice; type: cell-based; details: for Growth controlled for: apple juice (pH 3.42) at 25° C., TAJ010530
Experimental: as §5

Lb. sake A10 = test: Bioscreen growth inhibition test; type: cell-based, Lactobacillus sake; details: for APP level causing significant inhibition / APP level causing total inhibition: BS010411, 24 h at 30° C.
Experimental: as §1, §2, §3

O=C1CC(CO)OC=C1O (stereo not shown) [APP, Ascopyrone P]
Control of growth (Lb. sake; milk at 8° C.): No control observed
Control of growth (Lb. sake; milk at 20° C.): No control observed
No inhibition (effect on growth of target organism by 2000 ppm APP) (Lb. sake; Milk at 8° C. pH 6.65): Lb. sake
No inhibition (effect on growth of target organism by 2000 ppm APP) (Lb. sake; Milk at 20° C. pH 6.65): Lb. sake
APP level causing significant inhibition (S cerevisiae H78): 4000
APP level causing total inhibition (S cerevisiae H78): >4000
APP level causing significant inhibition (S. cerevisiae ATCC9763): Enhanced growth
APP level causing total inhibition (S. cerevisiae ATCC9763): >4000
Sensitivity in well diffusion (zones of inhibition) [1]: sensitive
Sensitivity in well diffusion (zones of inhibition) [2]: sensitive
Sensitivity in well diffusion (zones of inhibition) (Bacillus cereus 204): sensitive
Sensitivity in well diffusion (zones of inhibition) [3]: sensitive
Sensitivity in well diffusion (zones of inhibition) [4]: sensitive
Sensitivity in well diffusion (zones of inhibition) (Micrococcus luteus): sensitive
Growth inhibition ([5]; 1000 ppm): No growth inhibition
Growth inhibition ([5]; 2000 ppm): No growth inhibition
No inhibition (effect on growth of target organism by 2000 ppm APP) ([5]; Apple juice at ambient pH 3.4): H. uvarum
Growth inhibition (Candida parapsilosis 458; 1000 ppm): No growth inhibition
Growth inhibition (Candida parapsilosis 458; 2000 ppm): No growth inhibition
Growth inhibition (B. nivea 163642; 1000 ppm): No growth inhibition
Growth inhibition (B. nivea 163642; 2000 ppm): No growth inhibition
Growth inhibition ([6]; 1000 ppm): No growth inhibition
Growth inhibition ([6]; 2000 ppm): No growth inhibition
Growth inhibition ([7]; 1000 ppm): No growth inhibition
Growth inhibition ([7]; 2000 ppm): No growth inhibition
No inhibition (effect on growth of target organism by 2000 ppm APP) ([7]; Apple juice at ambient pH 3.4): Rh. mucilaginosa
Growth controlled for ([8]; 1000 ppm): 34 days
Growth controlled for ([8]; 2000 ppm): 34 days
Partial inhibition (effect on growth of target organism by 2000 ppm APP) ([8]; Apple juice at ambient pH 3.4): Z. bailii
APP level causing significant inhibition (Lb. sake A10; APP20010213): 250 ppm
APP level causing total inhibition (Lb. sake A10; APP20010213): 500 ppm
APP level causing significant inhibition (Lb. sake A10; APP20010215): 250 ppm
APP level causing total inhibition (Lb. sake A10; APP20010215): 500 ppm
Total inhibition (effect on growth of target organism by 2000 ppm APP) (Lb. sake A10; Lab media at optimum temperature): Lb. sake
